PMC6934184, “Selective DNA-PKcs inhibition extends the therapeutic index of localized radiotherapy and chemotherapy” (The Journal of Clinical Investigation, 2019)

Target: T1, DDR2 (Homo sapiens, UniProt Q16832)
T1 construct: purchased Thermo Fisher Scientific (Life Technologies) SelectScreen
Assay: SelectScreen LanthaScreen
Format: binding
Conditions: read-out: % displacement
In short: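 Percent values come from Thermo SelectScreen profiling of NU5455, combining activity and binding assays. CSF1R was run in Z'LYTE format at Km app ATP, and CAMK1 in Adapta format with ATP listed at 10.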

T1 sequence (Q16832 22-855): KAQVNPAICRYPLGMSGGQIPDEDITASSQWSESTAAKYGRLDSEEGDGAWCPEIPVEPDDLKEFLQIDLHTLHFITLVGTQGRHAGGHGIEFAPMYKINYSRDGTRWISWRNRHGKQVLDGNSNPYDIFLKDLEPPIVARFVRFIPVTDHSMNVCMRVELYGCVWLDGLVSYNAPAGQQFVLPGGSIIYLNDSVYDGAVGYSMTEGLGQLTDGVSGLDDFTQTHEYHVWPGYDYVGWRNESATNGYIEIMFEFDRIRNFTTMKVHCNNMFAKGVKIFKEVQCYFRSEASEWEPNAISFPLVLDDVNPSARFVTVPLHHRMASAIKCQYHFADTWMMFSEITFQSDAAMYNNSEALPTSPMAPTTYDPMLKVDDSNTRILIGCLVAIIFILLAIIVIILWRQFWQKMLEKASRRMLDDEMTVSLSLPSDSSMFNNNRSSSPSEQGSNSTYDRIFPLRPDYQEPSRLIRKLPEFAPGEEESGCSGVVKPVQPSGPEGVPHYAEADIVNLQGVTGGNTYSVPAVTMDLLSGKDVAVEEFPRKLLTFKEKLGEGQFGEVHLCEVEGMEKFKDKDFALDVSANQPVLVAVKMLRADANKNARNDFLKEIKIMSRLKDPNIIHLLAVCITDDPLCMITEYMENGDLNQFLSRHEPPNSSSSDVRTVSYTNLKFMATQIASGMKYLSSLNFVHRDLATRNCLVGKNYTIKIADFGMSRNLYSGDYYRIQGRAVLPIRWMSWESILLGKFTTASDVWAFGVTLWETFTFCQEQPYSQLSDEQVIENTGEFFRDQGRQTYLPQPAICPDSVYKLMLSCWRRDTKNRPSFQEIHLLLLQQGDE

For CN(C(=O)CN1CCOCC1)c1ccc2sc3c(-c4cccc5c(=O)cc(N6CC7CCC(C6)O7)oc45)cccc3c2c1 [NU5455], the inhibition at 1 µM was 0.7%.
